Reference: patent US20100285145A1, “GPR 119 MODULATORS” (PFIZER INC, priority 2009, published 2010)
“And” between values parts separate entries of the source, which are not always exact repeats. Equal entries are not always repeated.

Assays:
Type in all cases: cell-based
[1] = biological target: T1, human GPR119 (Homo sapiens, UniProt Q8TDV5); assay: β-Lactamase reporter functional assay (hGPR119 HEK293-CRE beta-lactamase cells); set-up: host or cells: HEK293-CRE beta-lactamase; Emax: dose or concentration left out as unconfirmed; details: for EC50: hGPR119 HEK293-CRE beta-lactamase cells, 16 h incubation, each line a separate determination, read-out: Human B-lactamase Functional EC50; for Emax / Intrinsic Activity (Human B-lactamase): percent of maximal activity relative to standard GPR119 agonist at 10 micromolar; for Emax: read-out: Intrinsic Activity (Human B-lactamase)
T1 sequence (Q8TDV5 1-335): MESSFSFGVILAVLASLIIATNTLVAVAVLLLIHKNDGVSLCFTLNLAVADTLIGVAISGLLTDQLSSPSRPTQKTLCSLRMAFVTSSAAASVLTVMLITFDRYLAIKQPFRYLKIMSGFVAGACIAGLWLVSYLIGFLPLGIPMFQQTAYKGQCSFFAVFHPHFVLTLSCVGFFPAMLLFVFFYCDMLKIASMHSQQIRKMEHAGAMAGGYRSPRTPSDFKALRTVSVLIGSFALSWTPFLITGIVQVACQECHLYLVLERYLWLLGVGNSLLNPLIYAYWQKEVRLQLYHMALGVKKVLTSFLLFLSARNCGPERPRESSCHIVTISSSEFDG
Experimental: The assay for GPR119 agonists utilizes a cell-based (hGPR119 HEK293-CRE beta-lactamase) reporter construct where agonist activation of human GPR119 is coupled to beta-lactamase production via a cyclic AMP response element (CRE). GPR119 activity is then measured utilizing a FRET-enabled beta-lactamase substrate, CCF4-AM (Live Blazer FRET-B/G Loading kit, Invitrogen cat #K1027). Specifically, hGPR119-HEK-CRE-beta-lactamase cells (Invitrogen 2.5×10^7/mL) were removed from liquid nitrogen storage, and diluted in plating medium (Dulbecco's modified Eagle medium high glucose (DMEM; Gibco Cat # 11995-065), 10% heat inactivated fetal bovine serum (HIFBS; Sigma Cat # F4135), 1×MEM Nonessential amino acids (Gibco Cat # 15630-080), 25 mM HEPES pH 7.0 (Gibco Cat # 15630-080), 200 nM potassium clavulanate (Sigma Cat # P3494). The cell concentration was adjusted using cell plating medium and 50 microL of this cell suspension ([…]) was added into each well of a black, clear bottom, poly-d-lysine coated 384-well plate (Greiner Bio-One cat# 781946) and incubated at 37 degrees Celsius in a humidified environment containing 5% carbon dioxide. After 4 hours the plating medium was removed and replaced with 40 microL of assay medium (Assay medium is plating medium without potassium clavulanate and HIFBS). Varying concentrations of each compound to be tested was then added in a volume of 10 microL (final DMSO ≦0.5%) and the cells were incubated for 16 hours at 37 degrees Celsius in a humidified environment containing 5% carbon dioxide. Plates were removed from the incubator and allowed to equilibrate to room temperature for approximately 15 minutes. 10 microL of 6×CCF4/AM working dye solution (prepared according to instructions in the Live Blazer FRET-B/G Loading kit, Invitrogen cat #K1027) was added per well and incubated at room temperature for 2 hours in the dark. Fluorescence was measured on an EnVision fluorimetric plate reader, excitation 405 nm, emission 460 nm/535 nm. EC50 determinations were made from agonist-response curves analyzed with a curve fitting program using a 4-parameter logistic dose-response equation.

[2] = biological target: T1, human GPR119; assay: β-Arrestin PathHunter assay (U2OS hGPR119 β-arrestin cells); details: for Emax: U2OS, read-out: Intrinsic Activity (Human B-arrestin)
Experimental: GPR119 agonist activity was also determined with a cell-based assay utilizing DiscoverX PathHunter β-arrestin cell assay technology and their U2OS hGPR119 β-arrestin cell line (DiscoverX Cat # 93-0356C3). In this assay, agonist activation is determined by measuring agonist-induced interaction of β-arrestin with activated GPR119. A small, 42 amino acid enzyme fragment, called ProLink was appended to the C-terminus of GPR119. Arrestin was fused to the larger enzyme fragment, termed EA (Enzyme Acceptor). Activation of GPR119 stimulates binding of arrestin and forces the complementation of the two enzyme fragments, resulting in formation of a functional β-galactosidase enzyme capable of hydrolyzing substrate and generating a chemiluminescent signal.
Specifically, U2OS hGPR119 β-arrestin cells (DiscoverX 1×10^7/mL) are removed from cryopreservation and diluted in growth medium (Minimum essential medium (MEM; Gibco Cat # 11095-080), 10% heat inactivated fetal bovine serum (HIFBS; Sigma Cat # F4135-100), […] sodium pyruvate (Sigma Cat # S8636), 500 microg/mL G418 (Sigma Cat # G8168) and 250 microg/mL Hygromycin B (Invitrogen Cat # 10687-010). The cell concentration was adjusted to 1.66×10^5 cells/mL and 30 mLs of this suspension was added to a T-175 flask and incubated at 37 degrees Celsius in a humidified environment in 5% carbon dioxide. After 24 hours, the cells were removed from the T-175 flask with enzyme-free cell dissociation buffer (Gibco cat #13151-014), centrifuged at 800×g and then re-suspended in plating medium (Opti-MEM I (Invitrogen/BRL Cat # 31985-070) and 2% charcoal dextran treated fetal bovine serum (CD serum; HyClone Cat # SH30068.03).
The cell concentration was adjusted to 2.5×10^5 cells/mL with plating medium and 20 microliters of this cell suspension (5000 cells) was added to each well of a white Greiner 384-well low volume assay plate (VWR cat #82051-458) and the plates were incubated at 37 degrees Celsius in a humidified environment in 5% carbon dioxide.
After 16 hours (overnight) the assay plates were removed from the incubator and varying concentrations of each compound to be tested (diluted in assay buffer (1×HBSS+CaCl2+MgCl2 (Gibco Cat # 14025-092), 20 mM HEPES pH 7.0 (Gibco Cat # 15630-080) and 0.1% BSA (Sigma Cat # A9576)) were added to the assay plate wells in a volume of 5 microliters (final DMSO concentration was 0.5%). After a 90 minute incubation at 37 degrees Celsius in a humidified environment in 5% carbon dioxide, 12 microliters of Galacton Star β-galactosidase substrate (PathHunter Detection Kit (DiscoveRx Cat # 93-0001); prepared as described in the manufacturers assay protocol) was added to each well of the assay plate. The plates were incubated at room temperature and after 60 minutes, changes in the luminescence were read with an Envision 2104 multilabel plate reader at 0.1 seconds per well. EC50 determinations were made from an agonist-response curves analyzed with a curve fitting program using a 4-parameter logistic dose response equation.

[3] = biological target: T1, human GPR119; assay: cAMP HTRF functional assay (hGPR119 HEK-CRE beta-lactamase cells); set-up: host or cells: HEK293-CRE beta-lactamase; details: for EC50: HTRF cAMP, 30 min, 400 microM IBMX, each line a separate determination; for Intrinsic Activity (Human cAMP) / Emax: percent of maximal activity relative to standard GPR119 agonist at 10 micromolar; for Emax: read-out: Intrinsic Activity (Human cAMP)
Experimental: GPR119 agonist activity was also determined with a cell-based assay utilizing an HTRF (Homogeneous Time-Resolved Fluorescence) cAMP detection kit (cAMP dynamic 2 Assay Kit; Cis Bio cat #62AM4PEC) that measures cAMP levels in the cell. The method is a competitive immunoassay between native cAMP produced by the cells and the cAMP labeled with the dye d2. The tracer binding is visualized by a Mab anti-cAMP labeled with Cryptate. The specific signal (i.e. energy transfer) is inversely proportional to the concentration of cAMP in either standard or sample.
Specifically, hGPR119 HEK-CRE beta-lactamase cells (Invitrogen 2.5×10^7/mL; the same cell line used in the beta-lactamase assay described above) are removed from cryopreservation and diluted in growth medium (Dulbecco's modified Eagle medium high glucose (DMEM; Gibco Cat # 11995-065), 1% charcoal dextran treated fetal bovine serum (CD serum; HyClone Cat # SH30068.03), 1×MEM Nonessential amino acids (Gibco Cat # 15630-080) and 25 mM HEPES pH 7.0 (Gibco Cat # 15630-080)). The cell concentration was adjusted to 1.5×10^5 cells/mL and 30 mLs of this suspension was added to a T-175 flask and incubated at 37 degrees Celsius in a humidified environment in 5% carbon dioxide. After 16 hours (overnight), the cells were removed from the T-175 flask (by rapping the side of the flask), centrifuged at 800×g and then re-suspended in assay medium (1×HBSS+CaCl2+MgCl2 (Gibco Cat # 14025-092) and 25 mM HEPES pH 7.0 (Gibco Cat # 15630-080)). The cell concentration was adjusted to 6.25×10^5 cells/mL with assay medium and 8 μl of this cell suspension (5000 cells) was added to each well of a white Greiner 384-well, low-volume assay plate (VWR cat #82051-458).
Varying concentrations of each compound to be tested were diluted in assay buffer containing 3-isobutyl-1-methylxanthin (IBMX; Sigma cat #15879) and added to the assay plate wells in a volume of 2 microL (final IBMX concentration was 400 microM and final DMSO concentration was 0.58%). Following 30 minutes incubation at room temperature, 5 microL of labeled d2 cAMP and 5 microL of anti-cAMP antibody (both diluted 1:20 in cell lysis buffer; as described in the manufacturers assay protocol) were added to each well of the assay plate. The plates were then incubated at room temperature and after 60 minutes, changes in the HTRF signal were read with an Envision 2104 multilabel plate reader using excitation of 330 nm and emissions of 615 and 665 nm. Raw data were converted to nM cAMP by interpolation from a cAMP standard curve (as described in the manufacturer's assay protocol) and EC50 determinations were made from an agonist-response curves analyzed with a curve fitting program using a 4-parameter logistic dose response equation.

[4] = percent of maximal activity relative to standard GPR119 agonist at 10 micromolar

Cc1c(O[C@H]2[C@@H]3COC[C@H]2CN(C(=O)OC(C)C)C3)ncnc1N1CCc2cc(S(C)(=O)=O)ccc21 [Example 24, Isopropyl (9-anti)-9-({5-methyl-6-[5-(methylsulfonyl)-2,3-d hydro-1H-indol-1-yl]pyrimidin-4-yl}oxy)-3-oxa-7-azabicyclo[3.3.1]nonane-7-carboxylate]
EC50 [1]: 111 nM
Emax [1]: 100%

Cc1c(O[C@@H]2CCN(C(=O)OC3(C)CC3)C[C@@H]2F)ncnc1N1CCc2ncccc21 [Example 18, 1-Methylcyclopropyl (3S,4R)-4-{[6-(2,3-dihydro-1H-pyrrolo[3,2-b]pyridin-1-yl)-5-methylpyrimidin-4-yl]oxy}-3-fluoropiperidine-1-carboxylate]
EC50 ([2]; U2OS hGPR119 β-arrestin cells, 90 min, each line a separate determination, read-out: Human B-arrestin Functional EC50): 2.57 nM and 19 nM and 4.94 nM and 20.6 nM
Emax [2, 4]: 75.8%
Intrinsic Activity (Human B-arrestin) [2, 4]: 73.7% and 81% and 78.9%
EC50 [3]: 18.8 nM and 18.4 nM and 15.9 nM and 12.7 nM and 14.6 nM
Intrinsic Activity (Human cAMP) [3]: 71.2% and 49.2% and 54.5% and 61.7% and 57.7%

CN(C)C(=O)c1ccc2c(n1)CCN2c1cc(OC2CCN(C(=O)OC3(C)CC3)CC2)ncn1 [Example 33, 1-Methylcyclopropyl 4-({6-[5-(dimethylcarbamoyl)-2,3-dihydro-1H-pyrrolo[3,2-b]pyridin-1-yl]pyrimidin-4-yl}oxy)piperidine-1-carboxylate]
EC50 [3]: 1550 nM
Emax [3]: 154%

CC(C)OC(=O)N1CCC(Oc2cc(N3CCc4cc(S(C)(=O)=O)cnc43)ncn2)CC1 [Example 14, Isopropyl 4-({6-[5-(methylsulfonyl)-2,3-dihydro-1H-pyrrolo[2,3-b]pyridin-1-yl]pyrimidin-4-yl}oxy)piperidine-1-carboxylate]
EC50 [1]: 7270 nM
Emax [1]: 98.1%
EC50 [3]: > 10000 nM

Cc1c(O[C@@H]2[C@@H]3COC[C@H]2CN(C(=O)OC2(C)CC2)C3)ncnc1N1CCc2ncccc21 [Example 28, 1-Methylcyclopropyl (9-syn)-9-{[6-(2,3-dihydro-1H-pyrrolo[3,2-b]pyridin-1-yl)-5-methylpyrimidin-4-yl]oxy}-3-oxa-7-azabicyclo[3.3.1]nonane-7-carboxylate]
Emax [2, 4]: 32.1%
Intrinsic Activity (Human cAMP) [3]: 37% and 36%
Emax [3]: 41.9%

CC(C)OC(=O)N1C[C@H]2COC[C@@H](C1)[C@@H]2Oc1ncnc(N2CCc3cc(S(C)(=O)=O)ccc32)c1C#N [Example 4]
EC50 [1]: 9.16 nM
Emax [1]: 87.9%
Intrinsic Activity (Human cAMP) [3]: 36% and 35.3%
Emax [3]: 36.2%

CC(C)OC(=O)N1C[C@H]2COC[C@@H](C1)[C@@H]2Oc1cc(N2CCc3cc(S(C)(=O)=O)ccc32)ncn1 [Example 2, Isopropyl 9-syn-({6-[5-(methylsulfonyl)-2,3-dihydro-1H-indol-1-yl]pyrimidin-4-yl}oxy)-3-oxa-7-azabicyclo[3.3.1]nonane-7-carboxylate]
EC50 [1]: 343 nM and 51.3 nM and 38.2 nM
Intrinsic Activity (Human B-lactamase) [1]: 106%
Emax [1]: 98%

CC(C)OC(=O)N1C[C@H]2COC[C@@H](C1)[C@H]2Oc1ncnc(N2CCc3cc(S(C)(=O)=O)ccc32)c1C#N [Example 5]
EC50 [1]: 11.5 nM and 12.5 nM
Intrinsic Activity (Human B-lactamase) [1]: 100%
Emax [1]: 98.1%
EC50 [3]: 357 nM and 602 nM and 1750 nM and 1330 nM and 1800 nM and 3140 nM

CC1(OC(=O)N2CC[C@H](Oc3cc(N4CCc5nc(C(N)=O)ccc54)ncn3)[C@H](F)C2)CC1 (racemic) [Example 32, 1-Methylcyclopropyl (3R,4S)-4-{[6-(5-carbamoyl-2,3-dihydro-1H-pyrrolo[3,2-b]pyridin-1-yl)pyrimidin-4-yl]oxy}-3-fluoropiperidine-1-carboxylate]
EC50 [3]: 273 nM
Emax [3]: 147%
